Data published in patent US10017542B2, “Antimicrobial peptides and methods of use thereof” (priority 2015, dated 2018).
Where a SMILES comes first, the peptide text is derived from it. Where no end group is shown, it is not given here. [ ]: non-standard residue; d: D form. Orn = NCCC[C@H](N)C(=O)O

What was measured:
Pseudomonas aeruginosa = assay: Killing of antibiotic resistant bacteria (FIG. 2); details: 1 hour time point after addition, single cell format
Staphylococcus aureus = assay: Killing of antibiotic resistant bacteria (FIG. 2); details: 1 hour time point after addition, single cell format
Clostridium difficile = assay: Killing of antibiotic resistant bacteria (FIG. 2); assay type: cell-based; details: 1 hour time point after addition, single cell format
B. thailandensis = details: concentration required to kill 50% of B. thailandensis; 10 mM phosphate buffer, 3 h, 37° C.
[1] = test system: S. epidermis (G+) biofilm
Method: (§1) The Minimum Biofilm Eradication Concentration (MBEC) Assay was used. MBEC values provide estimates on the concentration of an antimicrobial product required to kill biofilm bacteria. The Calgary Biofilm Device (CBD) plate was used to effect biofilm formation on a lid containing 96 pegs. Bacterial cultures were grown and diluted in Tryptic Soy Broth (TSB) to approximately 1×10^7 CFU/mL before inoculation of the CBD plate, which was then incubated for 24 hr at 35° C. on a shaker at 125 rpm.
(§2) The peg lid containing biofilm was first rinsed in PBS to remove planktonic cells prior to treatment with 2-fold serial dilutions of test articles and control overnight at 35° C. The peg lid was rinsed in PBS twice before sonication in fresh media to disrupt biofilm adhered to the pegs. The plate was then incubated overnight to evaluate growth. Bacterial quantification was performed by measuring absorbance at 650 nm (A650). By definition, A650 reading of less than 0.1 indicates biofilm eradication.

[2] = test system: P. aeruginosa (G−) biofilm
Method: as §1, §2

[3] = test system: S. aureus MRSA (G+) biofilm
Method: as §1, §2

E. coli = details: 24 h
Method: (§3) Measurement of antimicrobial and anti-fungal activity was determined by a standard micrometer dilution method. Briefly, cells were grown overnight in media specified for each strain, and were diluted in the same media. Serial dilutions of the peptides were added to microtiter plates in a volume of 50 ul, followed by the addition of 50 ul of bacteria or fungi, 5×10^5 CFU/ml. Plates were incubated at 37 degrees for 24 hours and the Minimum Inhibitory Concentrations (MICs) were determined as the lowest peptide concentration that inhibited 50% of bacterial growth.

E. cloaca = details: 24 h
Method: as §3

[4] = test system: bacterial isolates of Table 7 (A. baumanii, E. coli, E. cloaca, Pseudomonas, Staphylococcus)
Method: (§4) Briefly, cells were grown overnight in media specified for each strain, and were diluted in the same media. Serial dilutions of the peptides were added to microtiter plates in a volume of 50 ul, followed by the addition of 50 ul of bacteria or fungi, 5×10^5 CFU/ml. Plates were incubated at 37 degrees for 24 hours and the Minimum Inhibitory Concentrations (MICs) were determined as the lowest peptide concentration that inhibited 50% of bacterial growth.

C. albicans = details: 24 h
Method: as §4

C. krusei = details: 24 h
Method: as §3

[5] = test system: fungal isolates of Table 8 (C. albicans, C. krusei, C. tropicalis)
Method: as §3

C. tropicalis = details: 24 h
Method: as §3

Method for A. baumanii (G−) biofilm: as §1, §2

| Molecule | EC50 (B. thailandensis) [µM] | Average MBEC [1] [µM] | Average MBEC [2] [µM] | Average MBEC (A. baumanii (G−) biofilm) [µM] | Average MBEC [3] [µM] | IC50 (C. krusei) [µM] | IC50 [5] [µM] | other results |
| --- | --- | --- | --- | --- | --- | --- | --- | --- |
| CC[C@H](C)[C@H](NC(=O)[C@H](CS)NC(=O)[C@H](Cc1ccccc1)NC(=O)[C@H](CCCNC(=N)N)NC(=O)CNC(=O)[C@H](CC(C)C)NC(=O)[C@H](CS)NC(=O)[C@H](CC(C)C)NC(=O)[C@H](CCCCN)NC(=O)[C@H](C)NC(=O)[C@H](CCCNC(=N)N)NC(=O)[C@@H](NC(=O)[C@@H](N)CCCCN)[C@@H](C)CC)C(=O)N[C@@H](CCCNC(=N)N)C(=O)N[C@@H](C)C(=O)N[C@@H](CCCCN)C(=O)N[C@@H](CC(C)C)C(=O)N[C@@H](CCCNC(=N)N)C(=O)O [RP439, KIRAKLCLGRFCIRAKLR] (H-KIRAKLCLGRFCIRAKLR-OH) |  |  |  |  |  |  |  | killing of P. aeruginosa (Pseudomonas aeruginosa): effective in killing; killing of S. aureus (Staphylococcus aureus): effectively killed; killing of C. difficile (Clostridium difficile): effective in killing |
| C[C@H](NC(=O)[C@H](Cc1ccccc1)NC(=O)[C@H](C)NC(=O)[C@@H](N)Cc1ccccc1)C(=O)N[C@@H](Cc1ccccc1)C(=O)N[C@@H](CCCN)C(=O)N[C@@H](C)C(=O)N[C@@H](Cc1ccccc1)C(=O)N[C@@H](CCCN)C(=O)N[C@@H](CCCN)C(=O)N[C@@H](C)C(=O)N[C@@H](Cc1ccccc1)C(=O)N[C@@H](CCCN)C(=O)N[C@@H](CCCN)C(=O)N[C@@H](Cc1ccccc1)C(=O)N[C@@H](CCCN)C(=O)N[C@@H](CCCN)C(=O)N[C@@H](C)C(=O)N[C@@H](Cc1ccccc1)C(=O)N[C@@H](CCCN)C(=O)N[C@@H](CCCN)C(=O)N[C@@H](C)C(=O)N[C@@H](Cc1ccccc1)C(=O)O [RP443, FAFAFOAFOOAFOOFOOAFOOAF] (H-FAFAF[Orn]AF[Orn][Orn]AF[Orn][Orn]F[Orn][Orn]AF[Orn][Orn]AF-OH; N-terminus and C-terminus assumed) | 55.6 | 3.68 | 57.62 | 3.68 | 7.36 |  |  |  |
| C[C@H](NC(=O)[C@H](Cc1ccccc1)NC(=O)[C@H](C)NC(=O)[C@H](Cc1ccccc1)NC(=O)[C@H](CCCN)NC(=O)[C@H](C)NC(=O)[C@H](Cc1ccccc1)NC(=O)[C@H](CCCN)NC(=O)[C@H](CCCN)NC(=O)[C@H](C)NC(=O)[C@H](Cc1ccccc1)NC(=O)[C@H](CCCN)NC(=O)[C@H](CCCN)NC(=O)[C@H](Cc1ccccc1)NC(=O)[C@H](CCCN)NC(=O)[C@H](CCCN)NC(=O)[C@H](C)NC(=O)[C@H](Cc1ccccc1)NC(=O)[C@H](CCCN)NC(=O)[C@H](CCCN)NC(=O)[C@H](C)NC(=O)[C@@H](N)Cc1ccccc1)C(=O)N[C@@H](Cc1ccccc1)C(=O)O [RP444, FAOOFAOOFOOFAOOFAOFAFAF] (H-FA[Orn][Orn]FA[Orn][Orn]F[Orn][Orn]FA[Orn][Orn]FA[Orn]FAFAF-OH; N-terminus and C-terminus assumed) | 14.8 | 14.41 | 57.62 | 3.68 | 14.41 |  |  |  |
| CC[C@H](C)[C@H](NC(=O)[C@H](CCCNC(=N)N)NC(=O)[C@H](C)NC(=O)[C@H](CC(C)C)NC(=O)[C@H](CCCNC(=N)N)NC(=O)[C@@H](N)CS)C(=O)N[C@H](C(=O)N[C@@H](CS)C(=O)NCC(=O)NCC(=O)N[C@@H](Cc1ccccc1)C(=O)N[C@@H](C)C(=O)N[C@@H](CCCN)C(=O)N[C@@H](CCCN)C(=O)N[C@@H](Cc1ccccc1)C(=O)N[C@@H](C)C(=O)N[C@@H](CCCN)C(=O)N[C@@H](CCCN)C(=O)N[C@@H](Cc1ccccc1)C(=O)N[C@@H](CCCN)C(=O)N[C@@H](CCCN)C(=O)N[C@@H](Cc1ccccc1)C(=O)N[C@@H](C)C(=O)N[C@@H](CCCN)C(=O)N[C@@H](CCCN)C(=O)N[C@@H](Cc1ccccc1)C(=O)N[C@@H](C)C(=O)N[C@@H](CCCN)C(=O)N[C@@H](Cc1ccccc1)C(=O)N[C@@H](C)C(=O)N[C@@H](Cc1ccccc1)C(=O)N[C@@H](C)C(=O)N[C@@H](Cc1ccccc1)C(=O)O)C(C)C [RP501, CRLARIVCGGFAOOFAOOFOOFAOOFAOFAFAF] (H-CRLARIVCGGFA[Orn][Orn]FA[Orn][Orn]F[Orn][Orn]FA[Orn][Orn]FA[Orn]FAFAF-OH; N-terminus and C-terminus assumed) |  |  |  |  |  |  |  | IC50 (E. coli): 7.3 µM; IC50 (E. cloaca): 14.5 µM; IC50 [4]: 13.6 µM |
| CC[C@H](C)[C@H](NC(=O)CNC(=O)CNC(=O)[C@H](CS)NC(=O)[C@H](Cc1ccccc1)NC(=O)[C@H](CCCN)NC(=O)CNC(=O)[C@H](CC(C)C)NC(=O)[C@H](CS)NC(=O)CNC(=O)CNC(=O)[C@H](CC(C)C)NC(=O)[C@H](CCCN)NC(=O)[C@H](C)NC(=O)[C@H](CCCN)NC(=O)[C@@H](NC(=O)[C@H](CCCN)NC(=O)[C@@H](N)Cc1ccccc1)[C@@H](C)CC)C(=O)N[C@@H](CCCN)C(=O)N[C@@H](C)C(=O)N[C@@H](CCCN)C(=O)N[C@@H](CC(C)C)C(=O)N[C@@H](CCCN)C(=O)N[C@@H](Cc1ccccc1)C(=O)O [RP504, FOIOAOLGGCLGOFCGGIOAOLOF] (H-F[Orn]I[Orn]A[Orn]LGGCLG[Orn]FCGGI[Orn]A[Orn]L[Orn]F-OH; N-terminus and C-terminus assumed) |  |  |  |  |  | 2.7 | 23 | IC50 (E. coli): 10.8 µM; IC50 (C. albicans): 43.3 µM; IC50 [4]: 17.6 µM |
| CC[C@H](C)[C@H](NC(=O)[C@H](C)NC(=O)[C@H](CCCN)NC(=O)[C@H](CCCN)NC(=O)[C@H](CCCN)NC(=O)[C@@H](NC(=O)[C@H](CCCN)NC(=O)[C@H](CC(C)C)NC(=O)[C@H](CCCN)NC(=O)[C@H](CCCN)NC(=O)[C@H](CCCN)NC(=O)[C@H](CCCN)NC(=O)[C@H](C)NC(=O)[C@H](CCCN)NC(=O)[C@H](CO)NC(=O)[C@H](CC(C)C)NC(=O)[C@@H](NC(=O)[C@H](CCCCN)NC(=O)[C@H](CC(C)C)NC(=O)[C@H](CC(C)C)NC(=O)[C@H](CO)NC(=O)[C@H](CCCN)NC(=O)[C@H](CC(C)C)NC(=O)[C@@H](N)CCCN)[C@@H](C)O)[C@@H](C)O)C(=O)N[C@@H](CO)C(=O)N[C@@H](CCCN)C(=O)O [RP505, OLOSLLKTLSOAOOOOLOTOOOAISO] (H-[Orn]L[Orn]SLLKTLS[Orn]A[Orn][Orn][Orn][Orn]L[Orn]T[Orn][Orn][Orn]AIS[Orn]-OH; N-terminus and C-terminus assumed) |  |  |  |  |  | 17.5 | 13.2 | IC50 (C. tropicalis): 8.8 µM |
| CSCC[C@H](NC(=O)[C@H](Cc1c[nH]c2ccccc12)NC(=O)[C@H](CC(C)C)NC(=O)[C@H](C)N)C(=O)N[C@H](C(=O)N[C@@H](CC(C)C)C(=O)N[C@@H](CCCN)C(=O)N[C@@H](CCCN)C(=O)N[C@@H](CCCN)C(=O)N[C@H](C(=O)N[C@@H](CC(C)C)C(=O)N[C@@H](CCCN)C(=O)N[C@@H](C)C(=O)N[C@@H](CCCN)C(=O)N[C@@H](C)C(=O)N[C@@H](CCCN)C(=O)N[C@@H](C)C(=O)N[C@@H](CC(C)C)C(=O)N[C@@H](CC(N)=O)C(=O)N[C@@H](C)C(=O)N[C@H](C(=O)N[C@@H](CC(C)C)C(=O)N[C@H](C(=O)NCC(=O)N[C@@H](C)C(=O)N[C@@H](CC(N)=O)C(=O)N[C@@H](C)C(=O)O)C(C)C)C(C)C)C(C)C)[C@@H](C)O [RP507, ALWMTLOOOVLOAOAOALNAVLVGANA] (H-ALWMTL[Orn][Orn][Orn]VL[Orn]A[Orn]A[Orn]ALNAVLVGANA-OH; N-terminus and C-terminus assumed) |  |  |  |  |  | 20 | 43.3 | IC50 (C. tropicalis): 40 µM |
| C[C@H](N)C(=O)N[C@@H](Cc1ccccc1)C(=O)N[C@@H](C)C(=O)N[C@@H](Cc1ccccc1)C(=O)N[C@H](C(=O)N[C@@H](C)C(=O)N[C@@H](CCCN)C(=O)N[C@@H](CCCN)C(=O)N[C@@H](CCCN)C(=O)N[C@@H](Cc1ccccc1)C(=O)N[C@@H](C)C(=O)N[C@@H](CCCN)C(=O)N[C@@H](Cc1ccccc1)C(=O)N[C@@H](CCCN)C(=O)N[C@@H](C)C(=O)N[C@@H](CCCN)C(=O)N[C@@H](Cc1ccccc1)C(=O)N[C@@H](C)C(=O)N[C@@H](CC(N)=O)C(=O)N[C@@H](Cc1ccccc1)C(=O)N[C@@H](C)C(=O)N[C@@H](Cc1ccccc1)C(=O)N[C@@H](C)C(=O)NCC(=O)N[C@@H](Cc1ccccc1)C(=O)N[C@@H](CC(N)=O)C(=O)N[C@@H](C)C(=O)O)[C@@H](C)O [RP508, AFAFTAOOOFAOFOAOFANFAFAGFNA] (H-AFAFTA[Orn][Orn][Orn]FA[Orn]F[Orn]A[Orn]FANFAFAGFNA-OH; N-terminus and C-terminus assumed) |  |  |  |  |  | 38.3 | 46 | IC50 (C. albicans): 38.3 µM |
| CN[C@H](CC(C)C)C(=O)N[C@H]1C(=O)N[C@@H](CC(N)=O)C(=O)N[C@H]2C(=O)N[C@H]3C(=O)N[C@H](C(=O)N[C@H](C(=O)O)c4cc(O)cc(O)c4-c4cc3ccc4O)[C@H](O)c3ccc(c(Cl)c3)Oc3cc2cc(c3O[C@@H]2O[C@H](CO)[C@@H](O)[C@H](O)[C@H]2O[C@H]2C[C@](C)(N)[C@H](O)[C@H](C)O2)Oc2ccc(cc2Cl)[C@H]1O [vancomycin, reference compound] |  |  |  |  |  |  |  | killing of P. aeruginosa (Pseudomonas aeruginosa): not effective; killing of C. difficile (Clostridium difficile): not effective |
| CPGFAKKFAKKFKKFAKKFAKFAFAF [RP438] | 11.2 | 12.89 | 51.43 | 6.45 | 12.89 |  |  |  |
| FAFAFAFKKAFKKFKKAFKKAF [RP442] | 0.95 | 14.68 | 234.28 | 1.87 | 14.68 |  |  | killing of P. aeruginosa (Pseudomonas aeruginosa): effective in killing; killing of S. aureus (Staphylococcus aureus): effectively killed; killing of C. difficile (Clostridium difficile): effective in killing |
